Results: patent US20040166058A1, “Ethylenedicysteine (EC)-drug conjugates, compositions and methods for tissue specific disease imaging” (Board of Regents, The University of Texas System, priority 2002, published 2004)
Values belong to the compound of their own block, whether it stands above or below them. Ends that are not written are not given here.

Key:
[1] = test system: RBA CRL-1747 mammary tumor; test: Biodistribution in mammary (breast) tumor-bearing rats; format: in vivo; conditions: iv
Method: (§1) Biodistribution was assessed in mammary tumor-bearing rats (RBA CRL-1747, n=3/time interval, iv). Studies were performed 14 to 17 days after implantation when tumors reached approximately 1 cm in diameter. Following administration of the radiotracer, rats were sacrificed at 0.5-4 hrs. The selected tissues were excised, weighed and counted for radioactivity by using a gamma counter (Packard Instruments, Downers Grove, Ill.). The biodistribution of tracer in each sample was calculated as percentage of the injected dose per gram of tissue wet weight (% ID/g).
as §1, with “breast” for “mammary”

[2] = test system: RBA CRL-1747 (breast cancer cells); test: In vitro cellular uptake in breast cancer cells; format: cell-based; conditions: 0.5-2 hrs, 50,000 cells/well
Excerpt: There was more uptake in ^99mTc-EC-carnitine than ^99mTc-EC (FIG. 16).

[3] = test system: human ovarian and uterine cancer cells; test: In vitro cellular uptake in human ovarian and uterine cancer cells; format: cell-based; conditions: 4-6 μCi/50,000 cells/well, 0.5-2 hrs
Method: An in vitro cell culture using tumor cells was incubated with ^99mTc-EC-penciclovir (4-6 μCi/50,000 cells/well) at 0.5-2 hrs in human ovarian and uterine cancer cells.

[4] = test system: mammary tumor; test: Scintigraphic imaging in mammary (breast) tumor-bearing rats; format: in vivo; conditions: 0.1-4 hrs, 0.1 mCi/rat, iv
Method: Scintigraphic imaging studies was performed in mammary tumor-bearing rats at 0.5-4 hrs (0.3 mCi/rat, n=3, iv). Control group was administered ^99mTc-EC. Computer-outlined region of interest was used to determine tumor uptake (counts/pixel) and tumor/nontumor count density ratios.
Scintigraphic imaging studies was performed in mammary tumor-bearing rats at 0.5-4 hrs (0.3 mCi/rat, n=3, iv). Control group was administered ^99mTc-EC.
Scintigraphic imaging studies was performed in mammary tumor-bearing rats at 0.5-4 hrs (0.1 mCi/rat, n=3, iv). Control group was administered ^99mTc-EC.
Scintigraphic imaging studies was performed in breast tumor-bearing rats at 0.5-4 hrs (0.1 mCi/rat, n=3, iv). Control group was administered ^99mTc-EC.
Scintigraphic imaging studies was performed in breast tumor-bearing rats at 0.1-4 hrs (0.1 mCi/rat, n=3, iv). Control group was administered ^99mTc-EC.

[5] = test system: human ovarian cancer cells; conditions: 4-6 μCi/50,000 cells/well, 0.5-2 hrs
[6] = test system: human prostate cancer cells (LNCap, PC-3); test: In vitro cellular uptake in human prostate cancer cells; format: cell-based; conditions: 4-6 μCi/100,000 cells/well, 0.5-2 hrs, LNCap and PC-3
Method: An in vitro cell culture using tumor cells was incubated with ^99mTc-EC-LHRH (4-6 μCi/100,000 cells/well) at 0.5-2 hrs in human prostate cancer cells. Two types cell lines were used. They are either sensitive to androgen (LNCap) or unresponsive to androgen (PC-3) therapy.

[7] = test system: RBA CRL-1747 breast cancer cells; test: In vitro blocking study of ^99mTc-EC-angiostatin uptake with unlabeled angiostatin; format: cell-based; conditions: unlabeled angiostatin 0-200 μM, 0.5-2 hrs, R^2=0.998; read-out: IC-50 of angiostatin (inhibition of ^99mTc-EC-angiostatin uptake)
Method: The IC-50 of angiostatin was 176 μM (R^2=0.998) (FIG. 3).

[8] = Cell culture uptake of Re-188 versus Tc-99m labeled EC-agents; format: cell-based
Method: To develop EC-DG in a kit form, EC-DG (10 mg) dissolved in 0.2 ml of water was freeze dried with tin chloride (2 mg in 0.2 ml of water) and gluconate (3 mg) in a 10 ml medi-vial and stored at room temperature prior to labeling. During labeling, the freeze dried powder was reconstituted in saline (0.5 ml) and pertechnate (10 mCi) was added. The kit was heated at 55° C. for 30 min (or 75° C. for 15 min). Radiochemical purity of ^99mTc-EC-DG was greater than 95% as determined by radio-TLC (saline, Rf: 0.8)(FIG. 39). A similar method could be applied to other EC-agents such as EC-metronidazole (EC-MN)(FIG. 40) and EC-penciclovir (also known as EC-Guan).

BONE/MUSCLE ([1]; 30 min): 2.419 ± 0.225
Tumor/Blood ([1]; 30 min): 0.255 ± 0.022
Tumor/Muscle ([1]; 30 min): 4.375 ± 0.304
UTERUS/BLOOD ([1]; 30 min): 0.259 ± 0.003
UTERUS/MUSCLE ([1]; 30 min): 4.471 ± 0.257
BONE/MUSCLE ([1]; 2 h): 3.058 ± 0.114
Tumor/Blood ([1]; 2 h): 0.307 ± 0.018
Tumor/Muscle ([1]; 2 h): 6.876 ± 0.704
UTERUS/BLOOD ([1]; 2 h): 0.240 ± 0.021
UTERUS/MUSCLE ([1]; 2 h): 5.442 ± 0.852
BONE/MUSCLE ([1]; 4 h): 4.314 ± 0.739
Tumor/Blood ([1]; 4 h): 0.395 ± 0.014
Tumor/Muscle ([1]; 4 h): 9.715 ± 0.387
UTERUS/BLOOD ([1]; 4 h): 0.255 ± 0.005
UTERUS/MUSCLE ([1]; 4 h): 6.278 ± 0.199
Compound: Cc1ccc(-c2cc(C(F)(F)F)nn2-c2ccc(S(=O)(=O)NC(=O)NCC(=O)NCCNC(=O)C3C[S][99Tc]45(=[O])[S]CC(C(=O)O)[N]4CC[N]35)cc2)cc1 (stereo not drawn) [^99mTc-EC-COX-2]
tumor-to-tissue count density ratios compared to ^99mTc-EC ([1]; 0.5-4 hrs): increased tumor-to-tissue count density ratios as a function of time
Biodistribution BONE & JOINT ([1]; 30 min): 0.324 ± 0.036 % of injected dose per gram of tissue weight
Biodistribution Blood ([1]; 30 min): 2.293 ± 0.038 % of injected dose per gram of tissue weight
Biodistribution Heart ([1]; 30 min): 0.475 ± 0.025 % of injected dose per gram of tissue weight
Biodistribution Intestine ([1]; 30 min): 0.406 ± 0.039 % of injected dose per gram of tissue weight
Biodistribution Kidney ([1]; 30 min): 4.963 ± 0.147 % of injected dose per gram of tissue weight
Biodistribution Liver ([1]; 30 min): 1.556 ± 0.046 % of injected dose per gram of tissue weight
Biodistribution Lung ([1]; 30 min): 1.033 ± 0.035 % of injected dose per gram of tissue weight
Biodistribution Muscle ([1]; 30 min): 0.133 ± 0.007 % of injected dose per gram of tissue weight
Biodistribution Spleen ([1]; 30 min): 0.594 ± 0.298 % of injected dose per gram of tissue weight
Biodistribution Stomach ([1]; 30 min): 0.370 ± 0.010 % of injected dose per gram of tissue weight
Biodistribution Thyroid ([1]; 30 min): 0.784 ± 0.090 % of injected dose per gram of tissue weight
Biodistribution Tumor ([1]; 30 min): 0.587 ± 0.062 % of injected dose per gram of tissue weight
Biodistribution UTERUS ([1]; 30 min): 0.595 ± 0.003 % of injected dose per gram of tissue weight
Biodistribution BONE & JOINT ([1]; 2 h): 0.190 ± 0.003 % of injected dose per gram of tissue weight
Biodistribution Blood ([1]; 2 h): 1.388 ± 0.063 % of injected dose per gram of tissue weight
Biodistribution Heart ([1]; 2 h): 0.283 ± 0.017 % of injected dose per gram of tissue weight
Biodistribution Intestine ([1]; 2 h): 0.276 ± 0.061 % of injected dose per gram of tissue weight
Biodistribution Kidney ([1]; 2 h): 6.088 ± 0.305 % of injected dose per gram of tissue weight
Biodistribution Liver ([1]; 2 h): 1.461 ± 0.049 % of injected dose per gram of tissue weight
Biodistribution Lung ([1]; 2 h): 0.712 ± 0.098 % of injected dose per gram of tissue weight
Biodistribution Muscle ([1]; 2 h): 0.062 ± 0.003 % of injected dose per gram of tissue weight
Biodistribution Spleen ([1]; 2 h): 0.965 ± 0.056 % of injected dose per gram of tissue weight
Biodistribution Stomach ([1]; 2 h): 0.187 ± 0.004 % of injected dose per gram of tissue weight
Biodistribution Thyroid ([1]; 2 h): 0.449 ± 0.015 % of injected dose per gram of tissue weight
Biodistribution Tumor ([1]; 2 h): 0.424 ± 0.019 % of injected dose per gram of tissue weight
Biodistribution UTERUS ([1]; 2 h): 0.334 ± 0.034 % of injected dose per gram of tissue weight
Biodistribution BONE & JOINT ([1]; 4 h): 0.178 ± 0.022 % of injected dose per gram of tissue weight
Biodistribution Blood ([1]; 4 h): 1.031 ± 0.033 % of injected dose per gram of tissue weight
Biodistribution Heart ([1]; 4 h): 0.224 ± 0.004 % of injected dose per gram of tissue weight
Biodistribution Intestine ([1]; 4 h): 0.190 ± 0.006 % of injected dose per gram of tissue weight
Biodistribution Kidney ([1]; 4 h): 6.363 ± 0.260 % of injected dose per gram of tissue weight
Biodistribution Liver ([1]; 4 h): 1.506 ± 0.080 % of injected dose per gram of tissue weight
Biodistribution Lung ([1]; 4 h): 0.500 ± 0.011 % of injected dose per gram of tissue weight
Biodistribution Muscle ([1]; 4 h): 0.002 ± 0.004 % of injected dose per gram of tissue weight
Biodistribution Spleen ([1]; 4 h): 0.981 ± 0.041 % of injected dose per gram of tissue weight
Biodistribution Stomach ([1]; 4 h): 0.139 ± 0.004 % of injected dose per gram of tissue weight
Biodistribution Thyroid ([1]; 4 h): 0.372 ± 0.021 % of injected dose per gram of tissue weight
Biodistribution Tumor ([1]; 4 h): 0.406 ± 0.004 % of injected dose per gram of tissue weight
Biodistribution UTERUS ([1]; 4 h): 0.263 ± 0.005 % of injected dose per gram of tissue weight
cellular uptake compared to ^99mTc-EC [2]: significant increase in uptake

Compound: Nc1nc2c(ncn2CCC(CO)CNC(=O)C2C[S][99Tc]34(=[O])[S]CC(C(=O)NCC(CO)CCn5cnc6c(=O)[nH]c(N)nc65)[N]3CC[N]24)c(=O)[nH]1 (stereo not drawn) [^99mTc-EC-penciclovir]
cellular uptake compared to ^99mTc-EC [3]: significant increased uptake

Compound: C[N+](C)(C)CCCCC(NC(=O)C1C[S][99Tc]23(=[O])[S]CC(C(=O)NC(CCCC[N+](C)(C)C)C(=O)[O-])[N]2CC[N]13)C(=O)[O-] (stereo not drawn) [^99mTc-EC-carnitine]
count density ratios tumor/muscle and heart/muscle [4]: High count density ratios
cellular uptake compared to ^99mTc-EC [2]: more uptake

Compound: CN(C)c1ncnc2c1ncn2C1OC(CO)C(NC(=O)C2C[S][99Tc]34(=[O])[S]CC(C(=O)O)[N]3CC[N]24)C1O (stereo not drawn) [^99mTc-EC-adenosine]
cellular uptake compared to ^99mTc-EC [5]: significant increased uptake

Compound: ^99mTc-EC-LHRH (QHWSYGLRPG; also: 99mTc-ethylenedicysteine (EC) label, attachment site not given here; UniProt P01148 24-33, looked up)
cellular uptake compared to ^99mTc-EC [6]: significant increased uptake

IC50 [7]: 176 µM
Compound: angiostatin

Compound: Nc1nc2c(ncn2CCC(CO)CNC(=O)[C@H](CS)NCCN[C@@H](CS)C(=O)NCC(CO)CCn2cnc3c(=O)[nH]c(N)nc32)c(=O)[nH]1 (stereo partly drawn) [EC-Guan]
uptakes of Re-188 versus Tc-99m labeled agent [8]: no marked difference between uptakes
